# Reference: US20110217337A1, “BIOACTIVE AGENT FOR BONE TISSUE ENGINEERING” (UNIVERSITY OF CONNECTICUT, priority 2010, published 2011)
# Columns and labels:
# [1] = system: rat mesenchymal stem cells; test: Quantitative calcium levels in mesenchymal stem cells; format: cell-based; details: vs control untreated cells and cells supplemented with BMP-2 peptide
# Experimental: FIG. 9. Quantitative calcium levels determined in untreated (control) rat mesenchymal stem cells and cells treated with BMP-2 or 6-Bnz-cAMP. Keys: D-BMP-2 peptide; E-6-Bnz-cAMP; F-Control.
# Cell adhesion, proliferation, and differentiation studies: Rabbit MSCs are plated onto PLAGA matrices at a plating density of 1×10^4 cells/cm^2 and cultured in standard basal medium. Four experimental groups are tested: (1) untreated cells, (2) 6-Bnz-cAMP treated cells, (3) BMP-2 treated cells, and (4) 6-Bnz-cAMP and BMP-2 treated cells. […] Initial cell adhesion is determined at 1 h, 3 h, 12 h, and 24 h. Cell proliferation and cell differentiation are determined at 1, 7, 14, and 21 days. Calcium deposition and ALP activity is also measured at days 3, 7, 14, and 21 in untreated cells compared to cells treated with BMP-2 or 6-Bnz-cAMP (FIGS. 9 and 10). […] For the cell adhesion assay, attached cells are quantified by crystal violet stain, a method routinely used to measure the initial cell adhesion. Cell proliferation is measured using a commercially available proliferation assay kit, MTS (Promega). For alkaline phosphatase (ALP) activity, the early markers of osteoblast differentiation are determined with a commercially availia ALP assay kit (Bio-rad). […] PCR amplification will be carried out and the resulting products will be analyzed by DNA gel electrophoresis and sequencing. […]
# MC3T3E1 cells = test: Cell proliferation, PicoGreen dsDNA assay; format: cell-based; details: 100 μM in regular growth medium
# Experimental: FIG. 3. 6-Bnz-cAMP promotes cell growth in the earliest day of cell culture (Day 1) and maintains the cell proliferation rate at Day 7 and Day 14. Error bars represent SD.
# MC3T3E1 subtype 4 cell line was purchased from the […] (ATCC). The cells were grown to confluence, then seeded onto PLAGA discs at a density of 50,000 cells/scaffold. The cells were cultured on the discs in vitro in a 37° C. and 5% CO2 environment, using MEM alpha cell culture medium +10% Fetal Bovine Serum as a nutrient source. At specific time points, cultured cells were collected for various assays i.e., cell adhesion assays, cell proliferation assays, and cell differentiation studies.
# Proliferation: Cell proliferation was tested using a PicoGreen dsDNA assay kit (Molecular Probes, Eugene, Oreg.) The procedure of the PicoGreen dsDNA assay was performed according to the manufacturer's instructions. Briefly, 5×10^4 cells ml^−1 were seeded in a well of a tissue culture plate. 100 μM of 6-Bnz-cAMP was added to the regular growth medium during cell seeding. The regular growth medium and 6-Bnz-cAMP (100 μM) were replaced every 3 to 4 days.
# Runx2 = Runx2 expression by SDS-PAGE and Western blotting; format: cell-based; details: day 21
# Experimental: FIG. 4. […] It is thought that Runx2 serves as a gatekeeper to promote osteogenesis, thus it is one of the most important marker for osteogenesis. In the control panel, consistent with the reported data in literature, Runx2 was detected in the presence of osteogenic medium but remain undetectable level without the osteogenic medium. […] The blot of tubulin serves as loading control for each sample loading.
# Differentiation: Osteogenic protein markers were analyzed SDS-PAGE and Western Blotting. Protein samples were resolved by SDS-PAGE on precast 12.5% […] gels (Bio-Rad, Hercules, Calif.) and transferred electrophoretically onto polyvinylidene difluoride membranes according to the manufacturer's instructions (Bio-Rad, Hercules, Calif.). Membranes were blocked with skim milk and then probed with respective antibodies. […]
# MC3T3E1 cells expressed classic markers for the osteoblastic phenotype in the presence of 6-Bnz-cAMP in the absence of osteogenic medium in samples collected at day 21. The level of Runx2, a bone-specific transcription factor which increases bone formation through the stimulation of bone-marker gene transcription in osteoblasts, was detected by immunoblotting (FIG. 4). In the control panel, Runx2 was detected in the presence of osteogenic medium but remain undetectable level without the osteogenic medium. […]
# MC3T3-E1 cells = test: ALP activity assay; format: cell-based; details: 100 μM
# Experimental: FIG. 5. 6-Bnz-cAMP increases ALP activities at day 7 and 14. […] To facilitate the comparison of different experimental settings, the ALP activity of the cells cultured in the regular growth medium at Day 7 was set to one relative unit.
# MC3T3-E1 cells were grown in mineralization media. 6-Bnz-cAMP was added to the culture medium to a final concentration of 100 μM for experiments; mineralization media only was used for positive controls. Osteoblast-associated markers were quantitated at days 7 and 14. Markers include increased alkaline phosphatas (ALP) activity (FIG. 5) and calcium precipitation in MC3T3-E1 cells (FIG. 6). 6-Bnz-cAMP toxicity was assessed at days 7, 14, and 21 in cells treated with 100 micromolar 6-Bnz-cAMP compared to untreated cells. Trypan blue staining was used to visualize cells (FIG. 7).
# ALP activities were measured using ALP assay kit according to the manufacturer's instructions (Bio-Rad, Hercules, Calif.). Briefly, at day 7 and 14, cells were collected and washed 4 times with PBS prior to the ALP activity assay. Cells were then lysed with 0.1% TX-100. Cell lysates were collected and mixed with the ALP substrate solution for 1 h at 37° C. incubation. The colorimetric change due to the presence of ALP activity was measured by a spectrophotometric plate reader at 405 nm. The absorbance values were then normalized to cellular DNA.
# [2] = water and a variety of pharmaceutically useful buffers and solvents; cited from earlier work
# Epac-Rap1 pathway = details: unlike cAMP; cited from earlier work
smiles,measurement,setting,value
"O=C(Nc1ncnc2c1ncn2C1O[C@@H]2COP(=O)([O-])O[C@H]2[C@H]1O)c1ccccc1.[Na+] (stereo partly drawn) [6-Bnz-cAMP, N^6-Benzoyladenosine-3′,5′-cyclic monophosphate]",calcium deposition,[1],further enhanced calcium deposition
same,proliferation rate,"MC3T3E1 cells; Days 7, 14 and 21",maintained
same,cell growth,MC3T3E1 cells; first day of culturing (Day 1),promote cell growth
same,expression of Runx2,"Runx2; 100 μM, absence of osteogenic medium",induces the expression of Runx2
same,expression of Runx2,"Runx2; osteogenic medium together with 6-Bnz-cAMP, vs 6-Bnz-cAMP alone",further enhanced the expression of Runx2
same,ALP activity,MC3T3-E1 cells; day 7,induced
same,ALP activity,MC3T3-E1 cells; day 14,further increased
same,solubility,[2],soluble in water
same,activation of the Epac-Rap1 pathway,Epac-Rap1 pathway,does not activate
